Values of other authors, collected in patent publication US20080181972A1, “Compositions and Methods for Maintaining, Strengthening, Improving, or Promoting Eye Health” (priority 2007, published 2008).
Blank lines part the entries; values can stand above or below the compound they belong to.

Legend:
[1] = phytoestrogenic isoflavones
[2] = system: bovine aortic endothelial cell- and human endothelial cell-mediated LDL oxidation; conditions: bovine aortic and human endothelial cells
LDL = conditions: conjugated diene, lipid peroxides and TBARS after cupric sulfate
H2O2 formation = conditions: both in vitro and in vivo
intracellular GSH = conditions: in vitro (cell culture)
[3] = system: intracellular GSH in lung, liver and kidney cells; conditions: in vivo, liver and kidney cells of mice injected daily with 4, 8, or 16 mg/kg for 11 days
AGE from Amadori adducts = conditions: in vitro and in vivo studies
[4] = system: human endothelial cell cultures
[5] = short- and long-term studies
[6] = long-term feeding to rats, 1% in drinking water
[7] = in vivo

Compound: O=c1c(-c2ccc(O)cc2)coc2cc(O)cc(O)c12 [genistein]
order of reactivity in scavenging the radical in the aqueous phase [1]: genistein>daidzein=genistin approximately equal to biochanin A=daidzein>formononentin approximately equal to onionin | endothelial cell-mediated LDL oxidation [2]: inhibited | order of ability to reduce LDL oxidizability (LDL): quercetine>morin>pelargonidin>genistein>naringin>apigenin | tumor promoter-induced H2O2 formation (H2O2 formation): strongly inhibited

Compound: O=C(O)CCCCC1CCSS1 (stereo not drawn) [ALA, Alpha-lipoic acid]
increase of intracellular GSH levels (intracellular GSH): 30-70% | increase of intracellular GSH levels [3]: 30-70%

Compound: Cc1ncc(CO)c(CN)c1O [PM, pyridoxamine]
inhibition of the formation of AGE from Amadori adducts (AGE from Amadori adducts): potent inhibitor

Compound: Cc1ncc(C[n+]2csc(CCO)c2C)c(N)n1 [thiamine]
AGE accumulation in the retina (retina of diabetic rats): preventing AGE accumulation | AGE generation [4]: effective in reducing AGE generation

Compound: NC(=O)c1cccnc1 [niacinamide]
toxicity [5]: low toxicity | carcinogenic effects [6]: No carcinogenic effects

Compound: O=C1O[C@H]([C@@H](O)CO)C(O)=C1O [vitamin C, Ascorbic acid]
daily intake without any known adverse effects (consumed daily): ≥ 1,000 mg

Compound: C/C(=C(\CCOP(=O)(O)O)SC(=O)c1ccccc1)N(C=O)Cc1cnc(C)nc1N [benfotiamine]
AGE accumulation in the retina (retina of diabetic rats): preventing AGE accumulation | AGE generation [4]: effective in reducing AGE generation

ill effects (daily dose of 19.25 mg over 29 days, healthy humans): no ill effects
Compound: CC1=C(/C=C/C(C)=C/C=C/C(C)=C/C=C/C=C(C)/C=C/C=C(C)/C=C/C2=C(C)C(=O)[C@@H](O)CC2(C)C)C(C)(C)C[C@H](O)C1=O [Astaxanthin]

Compound: CC(=O)Oc1c(C)c(C)c2c(c1C)CC[C@@](C)(CCC[C@H](C)CCC[C@H](C)CCCC(C)C)O2 (racemic) [DL-α-tocopheryl acetate]
level at which no adverse effects have been observed (in vivo): ≤ 800 mg

Compound: CC1=C(/C=C/C(C)=C/C=C/C(C)=C/C=C/C=C(C)/C=C/C=C(C)/C=C/C2=C(C)CCCC2(C)C)C(C)(C)CCC1 [beta-carotene, Beta-carotene]
efficiency of conversion to vitamin A in the body [7]: approximately 50% | dosage level with no observed adverse effects (healthy, non-smokers): ≤ 25 mg per day | adverse effects observed (individuals who receive 20 mg/day): increased risk of fatal coronary heart attacks in men with previous myocardial infarction and an increased risk of lung cancer among male smokers
